Laboratory results published in BigSolDB 2.1.

CC(C)(C)C(=O)C(Oc1ccc(Cl)cc1)n1ccnc1 (stereo not drawn)
solubility (mole fraction)
Settings | in acetone | in acetonitrile | in ethanol | in ethyl acetate | in isobutanol | in methanol | in methyl acetate | in n-butanol | in n-butyl acetate
288.15 K | 0.147 | 0.0724 | 0.112 | 0.0909 | 0.098 | 0.161 | 0.0955 | 0.111 | 0.088
293.15 K | 0.164 | 0.083 | 0.132 | 0.105 | 0.112 | 0.181 | 0.109 | 0.131 | 0.0994
298.15 K | 0.185 | 0.103 | 0.157 | 0.126 | 0.137 | 0.204 | 0.129 | 0.152 | 0.115
303.15 K | 0.207 | 0.129 | 0.185 | 0.151 | 0.161 | 0.226 | 0.156 | 0.181 | 0.142
308.15 K | 0.235 | 0.158 | 0.211 | 0.172 | 0.192 | 0.255 | 0.179 | 0.205 | 0.163
313.15 K | 0.259 | 0.19 | 0.25 | 0.202 | 0.22 | 0.28 | 0.214 | 0.245 | 0.192
318.15 K | 0.301 | 0.222 | 0.288 | 0.239 | 0.26 | 0.318 | 0.251 | 0.283 | 0.227
